Data: ChEMBL document CHEMBL1122924 (J Med Chem, 1985)

What was measured:
physchem [1] = settings: octanol/0.05 M phosphate buffer, pH 7.4
Description: Compound was evaluated for apparent partition coefficient (log P) between octanol and 0.05 M phosphate buffer solution of pH 7.40

physchem [2] = settings: pH 7.4

SMILES | logD (physchem [1]) | half-life (physchem [2]) [h]
CC[C@H](C(=O)OCc1ccccc1)[C@H](CO)Cc1cncn1C | 1.82 | 0.833
CCCCOC(=O)[C@@H](CC)[C@H](CO)Cc1cncn1C | 1.58 | 13.7
CC[C@H](C(=O)OCc1ccccc1C)[C@H](CO)Cc1cncn1C | 2.27 | 2.32
CCCCCCOC(=O)[C@@H](CC)[C@H](CO)Cc1cncn1C | 2.56 | 18.4
CC[C@H](C(=O)OCc1ccc(Cl)cc1)[C@H](CO)Cc1cncn1C | 2.54 | 0.5
CC[C@H](C(=O)OC(C)c1ccccc1)[C@H](CO)Cc1cncn1C (stereo partly drawn) | 2.08 | 7.92
CC[C@H](C(=O)OCCc1ccccc1)[C@H](CO)Cc1cncn1C | 2.16 | 3.78
CC[C@H](C(=O)OCc1ccc(C)cc1)[C@H](CO)Cc1cncn1C | 2.31 | 1.28
CCOC(=O)[C@@H](CC)[C@H](CO)Cc1cncn1C | 0.58 | 8.5
